According to patent US20160067301A1, “ANTAGONISM OF ABCG4, LYN KINASE, AND C-CBL E3 LIGASE TO INCREASE PLATELET COUNT AS THERAPY FOR THROMBOCYTOPENIA” (The Trustees of Columbia University in the City of New York, priority 2013, published 2016):
Where a SMILES comes first, the peptide text is derived from it. The star is where a group is joined. Cbz = O=C(OCc1ccccc1)*

How the values were obtained:
[1] = tested on: cell surface c-MPL on MkPs; test: Cell surface c-MPL expression on MkPs by flow cytometry; type: cell-based, mouse; settings: for cell surface c-MPL levels in MkPs: bone marrow progenitor cells from WT or Abcg4−/− mice, TPO 10 ng/ml, 2 hrs, Tolimidone 10 μM, CRIN-1 1 μM (FIG. 18)
Description: After harvesting bone marrow progenitor cells, RBCs were lysed, and the cells were resuspended in FACS buffer, Bone marrow cells were stained for MkPs as stated above, and c-MPL or isotype control antibodies were included. Cells were then washed and stained with a fluorescently conjugated secondary rabbit-specific antibody to detect the antibody to c-MPL for a further 30 min on ice. Following this, the cells were washed, resuspended in FACS buffer and run on an LSRII flow cytometer. MEPs were identified as Lin^−c-Kit^+CD16/CD32^loCD34^loCD41^−, and MkPs were identified as Lin^−c-Kit^+CD16/CD32^loCD34^loCD41^+.

[2] = tested on: c-CBL phosphorylation in MkPs; test: c-CBL tyrosine phosphorylation in MkPs in response to TPO (phospho-flow cytometry); type: cell-based, mouse; settings: for c-CBL phosphorylation: 5 min TPO, CD 3 mM or CD-chol 30 min, rHDL 20 μg apoA-I ml-1 2 h, SU6656 10 μg ml-1 2 h
Description: Bone marrow progenitor cells were stimulated with TPO at the indicated concentration for the specified period of time at 37° C. and then immediately diluted with ice-cold buffer and placed on ice to prevent further changes in phosphorylation. Cells were then centrifuged at 800 g for 2 min, and the pellet was resuspended in BD fix buffer (BD Biosciences) for 10 min on ice. The cells were washed with BD flow cytometry staining buffer, centrifuged, and then resuspended in BD cytofix/perm buffer III for 20 min. After this, the cells were washed and resuspended in BD staining buffer and incubated with lineage (Sca1, CD127, CD45R, CD19, CD11b, CD3e, TER-119, CD2, CD8, CD4 and Ly-6G, all FITC; eBioscience) and progenitor cell markers (c-Kit, CD16/CD32 (FcγRII/III), CD34, CD41 and antibody to p-c-CBL (Tyr700 human, Tyr698 mouse; BD Biosciences)) or an isotype control for 30 min on ice. The cells were then washed, resuspended in FACS buffer and run on an LSRII. The amount of phosphorylated c-Cbl was normalized against that of isotype control staining.

[3] = tested on: MkPs; test: MkP proliferation (EdU incorporation, flow cytometry); type: cell-based, mouse; settings: 16 h with TPO
[4] = tested on: bone marrow HSPCs; test: MK-CFU megakaryocyte colony-forming assay; type: cell-based, mouse; settings: ABCG4-deficient cells (FIG. 13c)
Description: Primary bone marrow HSPCs obtained by FACS were plated in methylcellulose-based medium (5,000 cells per assay) containing TPO (50 ng interleukin-6 (IL-6) (20 ng ml^−1) and IL-3 (10 ng ml^−1) and incubated for 8 d according to the manufacturer's protocol (Megacult-C, Stemcell Technologies). Cultures were fixed, and megakaryocyte colonies were visualized by staining for acetylcholinesterase activity. Nuclei were counterstained with Harris' hematoxylin. Colonies containing more than three megakaryocytes were scored as MK-CFUs.

[5] = tested on: WT and Abcg4−/− mice; test: Platelet count after a single TPO injection in WT and Abcg4−/− mice; type: in vivo, mouse; settings: for increase in the number of platelets: single dose TPO 50 μg per kg body weight (FIG. 2i)
Description: The Institutional Animal Care and Use Committee of Columbia University approved all the mouse studies. Abcg4−/−, Abcg1−/− Abca1−/− and Abcg1−/− mice in a C57BL/6J background were created as described and used in this study. Abcg4−/− mice were backcrossed onto C57BL/6J mice for more than ten generations. WT (C57BL/6J) and Ldlr−/− (B6.129S7-Ld1rtm1Her) mice were obtained from The Jackson Laboratory (Bar Harbor, Me.). For bone marrow transplantation studies, bone marrow from WT, Abcg4−/−, Abcg1−/− Abca1−/− or Abcg1−/− mice was transplanted into WT or Ldlr−/− recipient mice as described. For atherosclerosis studies, bone marrow-transplanted recipient mice were fed a Western diet (TD88137, Harlan Teklad) for the indicated period of time. Bone marrow-specific retro-viral expression of murine c-MPL^W515L was established as described44 using WT C57BL/6J mice as the recipient and WT C57BL/6J or Abcg4−/− mice as the bone marrow donor. Where indicated, vehicle (saline), rHDL or TPO (R&D Systems) was injected at the indicted dose into the mice through the tail vein. rHDL (CSL-111) was provided by CSL Behring AG, Bern, Switzerland; CSL-111 is composed of human apoA-I and phosphatidylcholine from soy bean in a ratio of 1:150. […]
Complete blood counts were quantified using whole blood collected from tail bleeding. A FORCYTE Veterinary Hematology Analyzer (Oxford Science, Inc.) was used for the analysis.

[6] = Abcg4−/− MkPs, with TPO 30 ng ml-1, CD 3 mM or CD-chol 30 min, rHDL 20 μg ml-1, SU6656 10 μg ml-1 2 h
[7] = WT MkPs, with TPO 30 ng ml-1, CD 3 mM or CD-chol 30 min, rHDL 20 μg ml-1, MG132 10 μM 2 h, SU6656 10 μg ml-1 2 h

Molecule: methyl-β-cyclodextrin
- cell surface c-MPL expression [1, 6]: significantly reduced to levels similar to those in cyclodextrin-treated WT MkPs
- c-CBL phosphorylation ([2]; Abcg4−/− MkPs): increased c-CBL phosphorylation
- c-CBL phosphorylation ([2]; WT MkPs): increased c-CBL phosphorylation
- MkP proliferation (EdU incorporation) ([3]; Abcg4−/− MkPs, CD 3 mM or CD-chol 30 min pretreatment, rHDL 20 μg ml-1 16 h): significantly reduced to levels similar to those in cyclodextrin-treated WT MkPs
- MkP proliferation (EdU incorporation) ([3]; Lyn−/− MkPs, cholesterol loading or depletion treatments): unresponsive
- MkP proliferation (EdU incorporation) ([3]; WT MkPs, CD 3 mM or CD-chol 30 min pretreatment, rHDL 20 μg ml-1 16 h): decreased the proliferation
- number of megakaryocyte colonies [4]: reversed the increase in the number of magakaryecyte colonies

Molecule: CC(C)C[C@@H](C=O)NC(=O)[C@H](CC(C)C)NC(=O)[C@H](CC(C)C)NC(=O)OCc1ccccc1 [MG132] (Cbz-Leu-Leu-Leu-aldehyde)
- cell surface c-MPL expression [1, 7]: increased c-MPL expression to a level similar to that in Abcg4−/− cells

Molecule: Tolimidone
- cell surface c-MPL expression ([1]; Abcg4−/− MkPs from hypercholesterolemic (WTD-fed) Ldlr−/− recipient mice, 10 μM, TPO, 2 h): reduced cell surface c-MPL expression
- cell surface expression of c-MPL ([1]; Abcg4−/− MkPs from normocholesterolemic mice (FIG. 14)): completely reversed the increased cell surface expression of c-MPL
- cell surface c-MPL expression ([1]; WT MkPs from hypercholesterolemic (WTD-fed) Ldlr−/− recipient mice, 10 μM, TPO, 2 h): reduced cell surface c-MPL expression
- cell surface c-MPL levels in MkPs [1]: decreases

Molecule: COc1c2c(cc3c1C(CN)N(C)CC3)OCO2 (stereo not shown) [CRIN-1]
- cell surface c-MPL levels in MkPs [1]: increases

Molecule: CN(C)S(=O)(=O)c1ccc2c(c1)/C(=C/c1cc3c([nH]1)CCCC3)C(=O)N2 [SU6656]
- cell surface c-MPL expression [1, 6]: increased cell surface expression of c-MPL
- cell surface c-MPL expression [1, 7]: increased cell surface expression of c-MPL
- c-CBL phosphorylation ([2]; Abcg4−/− MkPs): markedly decreased c-CBL phosphorylation
- difference in response to TPO between WT and Abcg4−/− MkPs (c-CBL phosphorylation, c-MPL expression) ([2]; SU6656 10 μg ml-1 for 2 h): abolished the difference in response to TPO
- c-CBL phosphorylation ([2]; WT MkPs): markedly decreased c-CBL phosphorylation

Molecule: TPO: Thrombopoietin (R&D Systems), growth factor regulating megakaryocyte and platelet development
- increase of platelet count after single injection of TPO, compared with wild type ([5]; Abcg4−/− mice (FIG. 17)): much more pronounced
- increase in the number of platelets ([5]; Abcg4−/− mice): 2.1 fold
- increase in the number of platelets ([5]; WT mice): 1.4 fold
- platelet count after single injection of TPO ([5]; wild type mice (FIG. 17)): induced increase of platelet count
